For orientation: IC50 means the midpoint of a concentration-inhibition curve. In general, inhibition refers to how much of the control response was suppressed.

The target of the assay is T1, recombinant human PAI-1 (Homo sapiens, UniProt P05121).
T1 construct: purchased Molecular Innovations, Inc
The assay is described as follows: Test Example 2: human PAI-1 inhibitory activity (tPA fluorogenic substrate, pH 7.4 HEPES buffer). It is filed as biochemical. The note with it: for inhibition at 3 µM / inhibition at 1 µM / inhibition at 0.3 µM: read-out: Inhibition Rate of PAI-1 Activity (%). The protocol: 0.1 M HEPES, 0.1 M NaCl. 1 mM EDTA. 0.1% Polyethylene glycol 8,000 (Hampton Research Corporation),
2 mM Dimethyldecylphoshine oxide [Apo-10] (Fluka Corporation)

T1 sequence (P05121 24-402): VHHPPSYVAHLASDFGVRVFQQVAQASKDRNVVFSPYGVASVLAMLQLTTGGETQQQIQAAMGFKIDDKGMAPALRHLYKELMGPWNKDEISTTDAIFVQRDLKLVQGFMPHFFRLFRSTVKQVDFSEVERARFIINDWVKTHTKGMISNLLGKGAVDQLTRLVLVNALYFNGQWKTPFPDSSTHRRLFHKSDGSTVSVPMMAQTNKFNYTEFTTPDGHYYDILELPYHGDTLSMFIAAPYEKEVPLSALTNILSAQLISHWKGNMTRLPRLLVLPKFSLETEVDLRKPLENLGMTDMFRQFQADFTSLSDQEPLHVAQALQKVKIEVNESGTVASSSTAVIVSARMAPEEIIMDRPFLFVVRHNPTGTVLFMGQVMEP

In the case of `CC(C)(C)Oc1ccc(-c2ccc(OC(F)(F)F)cc2)cc1N(CCCCc1ccccc1)C(=O)C(=O)O` [Compound 373], the IC50 turned out to be 1580 nM.
As to `CCCCCOc1ccc(-c2ccc(OC(F)(F)F)cc2)cc1N(CCCCOc1ccccc1)C(=O)C(=O)O` [Compound 374], the IC50 turned out to be 880 nM and the inhibition at 3 µM is over 99%.
Turning to `CCCCCCCCCCCCCCCOc1ccc(-c2ccc(OC(F)(F)F)cc2)cc1N(CCCCc1ccccc1)C(=O)C(=O)O` [Compound 375], the IC50 was under 100 nM and the inhibition at 1 µM is over 99%.
`CCCCCOc1cc(-c2cccc(C)c2)ccc1N(CCCCc1ccccc1)C(=O)C(=O)O` [Compound 376]: the IC50 came out at 790 nM.
Still for that read-out and setting: the result for `CCCCCOc1cc(-c2cccc(C(F)(F)F)c2)ccc1N(CCCCc1ccccc1)C(=O)C(=O)O` [Compound 377] reads 480 nM; that for `CCCCCOc1ccc(-c2cccc(C(F)(F)F)c2)cc1N(CCCCc1ccccc1)C(=O)C(=O)O` [Compound 378], 620 nM.
On to `CCCCCOc1ccc(-c2cccc(C)c2)cc1N(CCCCc1ccccc1)C(=O)C(=O)O` [Compound 379], for which the IC50 came out at 640 nM.
As for `CCCCCCCCCOc1cc(-c2ccc(OC(F)(F)F)cc2)ccc1N(CCCCc1ccccc1)C(=O)C(=O)O` [Compound 380], the IC50 is under 100 nM and the inhibition at 3 µM was over 99%.
On to `O=C(O)C(=O)N(CCCCc1ccccc1)c1cc(-c2ccc(OC(F)(F)F)cc2)ccc1OCCCCC(F)(F)F` [Compound 381], for which the half-maximal inhibitory concentration (IC50) was 1040 nM and the inhibition at 3 µM was over 99%.
As for `CCCCCOc1ccc(-c2ccc(OC(F)(F)F)cc2)cc1N(CCCCc1ccc(F)cc1)C(=O)C(=O)O` [Compound 382], the IC50 turned out to be 650 nM.
Still for that read-out and setting: the result for `O=C(O)C(=O)N(CCCCc1ccccc1)c1cc(-c2ccc(OC(F)(F)F)cc2)ccc1OCCC(F)(F)F` [Compound 383] reads 1340 nM.
Turning to `CCCCCOc1ccc(-c2ccc(OC(F)(F)F)cc2)cc1N(CCCCc1ccc(Cl)cc1)C(=O)C(=O)O` [Compound 384], the half-maximal inhibitory concentration (IC50) was found to be 510 nM.
Turning to `CCCCCCCCCCCCCCCOc1cc(-c2ccc(OC(F)(F)F)cc2)ccc1N(CCCCc1ccccc1)C(=O)C(=O)O` [Compound 385], the IC50 was under 100 nM, the inhibition at 0.3 µM was over 99%, the inhibition at 1 µM is over 99% and the inhibition at 3 µM was over 99%.
`CCCCCCCOc1cc(-c2ccc(OC(F)(F)F)cc2)ccc1N(CCCCc1ccccc1)C(=O)C(=O)O` [Compound 386]: the IC50 worked out at 470 nM, the inhibition at 1 µM is over 99% and the inhibition at 3 µM is over 99%.
On to `CCCCCCCCCOc1ccc(N(CCCCc2ccccc2)C(=O)C(=O)O)cc1-c1ccc(OC(F)(F)F)cc1` [Compound 387], for which the IC50 was under 100 nM, the inhibition at 0.3 µM was over 99%, the inhibition at 1 µM was over 99% and the inhibition at 3 µM was over 99%.
Regarding `CCCCCCCCCOc1cc(N(Cc2ccc(C(C)(C)C)cc2)C(=O)C(=O)O)ccc1-c1ccc(OC(F)(F)F)cc1` [Compound 388], the IC50 was under 100 nM, the inhibition at 0.3 µM is over 99%, the inhibition at 1 µM was over 99% and the inhibition at 3 µM is over 99%.
`CCCCCCCCCOc1cc(N(CCCCc2ccccc2)C(=O)C(=O)O)ccc1-c1ccc(OC(F)(F)F)cc1` [Compound 389]: the IC50 was under 100 nM, the inhibition at 1 µM is over 99% and the inhibition at 3 µM is over 99%.
With `CCCCCOc1ccc(-c2ccc(C(F)(F)F)cc2)cc1N(CCCCc1ccccc1)C(=O)C(=O)O` [Compound 390], the IC50 is 650 nM.
Turning to `CCCCCOc1ccc(-c2cccc(OC(F)(F)F)c2)cc1N(CCCCc1ccccc1)C(=O)C(=O)O` [Compound 391], the IC50 was determined as 780 nM.
With `CCCCCOc1cc(-c2ccc(C(F)(F)F)cc2)ccc1N(CCCCc1ccccc1)C(=O)C(=O)O` [Compound 392], the concentration for half-maximal inhibition (IC50) was 710 nM and the inhibition at 3 µM is over 99%.
For the molecule `CCCCCOc1cc(-c2cccc(OC(F)(F)F)c2)ccc1N(CCCCc1ccccc1)C(=O)C(=O)O` [Compound 393], the IC50 turned out to be 690 nM.

These data come from patent publication US8633245B2, “PAI-1 inhibitor” (Institute of Medicinal Molecular Design, Inc., priority 2008, dated 2014).
